Laboratory results taken from the NIST ThermoML archive (doi:10.1021/je201289w).
± gives the expanded uncertainty stated by the source.

Experiments:
[1] = 101.33 kPa, Liquid, Vibrating tube method
[2] = refractive index (Na D-line) (dimensionless); settings: 101.33 kPa, Liquid, Standard Abbe refractometry

CCn1cc[n+](C)c1.O=S(=O)([N-]S(=O)(=O)C(F)(F)F)C(F)(F)F
Settings | mass density, [1] [kg/m3] | refractive index, [2]
283.15 K | 1533.8 ± 2.8 | 1.42738 ± 0.00063
288.15 K | 1528.7 ± 2.7 | 1.42594 ± 0.00063
293.15 K | 1523.6 ± 2.7 | 1.42451 ± 0.00063
298.15 K | 1518.5 ± 2.7 | 1.42309 ± 0.00063
303.15 K | 1513.4 ± 2.7 | 1.42166 ± 0.00063
308.15 K | 1508.4 ± 2.7 | 1.42022 ± 0.00063
313.15 K | 1503.3 ± 2.7 | 1.41881 ± 0.00063
318.15 K | 1498.3 ± 2.6 | 1.4174 ± 0.00063
323.15 K | 1493.3 ± 2.6 | 1.41597 ± 0.00063
328.15 K | 1488.4 ± 2.6 | 1.41458 ± 0.00063
333.15 K | 1483.4 ± 2.6 | 1.41319 ± 0.00063
338.15 K | 1478.5 ± 2.6 | 1.41177 ± 0.00063
343.15 K | 1473.6 ± 2.5 | 1.41037 ± 0.00063
348.15 K | 1468.7 ± 2.5 | 1.40902 ± 0.00063
353.15 K | 1463.9 ± 2.5 | 1.4076 ± 0.00063

CCCCn1cc[n+](C)c1.O=S(=O)([N-]S(=O)(=O)C(F)(F)C(F)(F)C(F)(F)C(F)(F)F)C(F)(F)C(F)(F)C(F)(F)C(F)(F)F
Settings | mass density, [1] [kg/m3] | refractive index, [2]
283.15 K | 1629.5 ± 3.1 | 1.39249 ± 0.00064
288.15 K | 1623.4 ± 3.1 | 1.39104 ± 0.00064
293.15 K | 1617.3 ± 3.1 | 1.38955 ± 0.00064
298.15 K | 1611.1 ± 3.1 | 1.38807 ± 0.00064
303.15 K | 1605 ± 3 | 1.38662 ± 0.00064
308.15 K | 1599.1 ± 3 | 1.38516 ± 0.00064
313.15 K | 1593.2 ± 3 | 1.38367 ± 0.00064
318.15 K | 1587.4 ± 3 | 1.38222 ± 0.00064
323.15 K | 1581.6 ± 2.9 | 1.38078 ± 0.00064
328.15 K | 1575.8 ± 2.9 | 1.3793 ± 0.00064
333.15 K | 1570 ± 2.9 | 1.37783 ± 0.00064
338.15 K | 1564.2 ± 2.9 | 1.37638 ± 0.00063
343.15 K | 1558.4 ± 2.9 | 1.37496 ± 0.00063
348.15 K | 1552.6 ± 2.8 | 1.3735 ± 0.00064
353.15 K | 1546.8 ± 2.8 | 1.37206 ± 0.00063

CCn1cc[n+](C)c1.CS(=O)(=O)[O-] [1-ethyl-3-methylimidazolium methanesulfonate]
Settings | mass density, [1] [kg/m3] | refractive index, [2]
283.15 K | 1252 ± 1.8 | 1.49994 ± 0.00063
288.15 K | 1248.4 ± 1.8 | 1.49855 ± 0.00063
293.15 K | 1245 ± 1.8 | 1.49718 ± 0.00063
298.15 K | 1241.6 ± 1.8 | 1.49582 ± 0.00063
303.15 K | 1238.2 ± 1.8 | 1.49444 ± 0.00063
308.15 K | 1234.9 ± 1.8 | 1.49308 ± 0.00063
313.15 K | 1231.5 ± 1.7 | 1.49172 ± 0.00063
318.15 K | 1228.2 ± 1.7 | 1.49039 ± 0.00063
323.15 K | 1224.8 ± 1.7 | 1.48905 ± 0.00063
328.15 K | 1221.5 ± 1.7 | 1.48768 ± 0.00063
333.15 K | 1218.1 ± 1.7 | 1.48638 ± 0.00063
338.15 K | 1214.8 ± 1.7 | 1.48498 ± 0.00063
343.15 K | 1211.5 ± 1.7 | 1.48367 ± 0.00063
348.15 K | 1208.1 ± 1.7 | 1.4823 ± 0.00063
353.15 K | 1204.8 ± 1.7 | 1.48095 ± 0.00063

CCn1cc[n+](C)c1.O=S(=O)([O-])O [1-ethyl-3-methylimidazolium hydrogen sulfate]
Settings | mass density, [1] [kg/m3] | refractive index, [2]
283.15 K | 1376.7 ± 2.2 | 1.50042 ± 0.00061
288.15 K | 1373.6 ± 2.2 | 1.49931 ± 0.00061
293.15 K | 1370.5 ± 2.2 | 1.4982 ± 0.00061
298.15 K | 1367.4 ± 2.2 | 1.4971 ± 0.00061
303.15 K | 1364.3 ± 2.2 | 1.49601 ± 0.00061
308.15 K | 1361.1 ± 2.2 | 1.49489 ± 0.00061
313.15 K | 1357.8 ± 2.1 | 1.49379 ± 0.00061
318.15 K | 1354.6 ± 2.1 | 1.49269 ± 0.00061
323.15 K | 1351.5 ± 2.1 | 1.49161 ± 0.00061
328.15 K | 1348.5 ± 2.1 | 1.49052 ± 0.00061
333.15 K | 1345.4 ± 2.1 | 1.48944 ± 0.00061
338.15 K | 1342.4 ± 2.1 | 1.48836 ± 0.00061
343.15 K | 1339.4 ± 2.1 | 1.48727 ± 0.0006
348.15 K | 1336.4 ± 2.1 | 1.48623 ± 0.00061
353.15 K | 1333.4 ± 2.1 | 1.48512 ± 0.00061

CCn1cc[n+](C)c1.N#C[S-] [1-ethyl-3-methylimidazolium thiocyanate]
Settings | mass density, [1] [kg/m3] | refractive index, [2]
283.15 K | 1124.7 ± 1.4 | 1.556 ± 0.00064
288.15 K | 1121.7 ± 1.4 | 1.5545 ± 0.00064
293.15 K | 1118.6 ± 1.4 | 1.55299 ± 0.00064
298.15 K | 1115.5 ± 1.4 | 1.55149 ± 0.00064
303.15 K | 1112.4 ± 1.4 | 1.54999 ± 0.00064
308.15 K | 1109.4 ± 1.4 | 1.5485 ± 0.00064
313.15 K | 1106.3 ± 1.4 | 1.54702 ± 0.00064
318.15 K | 1103.3 ± 1.4 | 1.54557 ± 0.00064
323.15 K | 1100.3 ± 1.4 | 1.54409 ± 0.00064
328.15 K | 1097.3 ± 1.3 | 1.54263 ± 0.00064
333.15 K | 1094.4 ± 1.3 | 1.54119 ± 0.00064
338.15 K | 1091.4 ± 1.3 | 1.53973 ± 0.00063
343.15 K | 1088.4 ± 1.3 | 1.53831 ± 0.00063
348.15 K | 1085.5 ± 1.3 | 1.53687 ± 0.00063
353.15 K | 1082.6 ± 1.3 | 1.53545 ± 0.00063
